Reference: patent publication US11485707B2, “Deuterated compounds as rock inhibitors” (Fochon Pharmaceuticals, Ltd., priority 2018, dated 2022)
Structures can show the parent of a compound that is named as a salt.

Details: male Chinchilla rabbits, topical to right eye once daily for 3 days, 30 μL/eye/dose; dosing on day 3 at 24 h; vs control
Protocol: ROCK In Vivo Inhibition Activity-Method C
Eighteen male rabbits were randomly assigned to 3 groups (6 animals/group). […] Clinical observations and ophthalmic examinations were performed once daily. IOP was measured by TONOVET Plus before first dosing, and at 0.5, 2, 4, 6 and 24 h after each first dosing on day 1 and day 3.
The change of IOP % was calculated using the following formula: The change of IOP %(ΔIOP %)=[IOP(time)−IOP(control)]/IOP(control)*100).
Select compounds prepared as described above were assayed according to the biological procedures described in Method C.

**Q.** For `[2H]C([2H])(OC(=O)c1ccc(C)cc1C)c1ccc([C@@H](CN)C(=O)Nc2ccc3cnccc3c2)cc1` [Example 3, (S)-(4-(3-amino-1-(isoquinolin-6-ylamino)-1-oxopropan-2-yl)phenyl)methyl-d2 2,4-dimethylbenzoate], which ΔIOP % is on record?
**A.** −5.02%

**Q.** Which ΔIOP % does the source give for `[2H]C([2H])([2H])c1ccc(C(=O)OC([2H])([2H])c2ccc([C@@]([2H])(CN)C(=O)Nc3ccc4cnccc4c3)cc2)c(C([2H])([2H])[2H])c1` [Example 6, (S)-(4-(3-amino-1-(isoquinolin-6-ylamino)-1-oxopropan-2-yl-2-d)phenyl)methyl-d2 2,4-bis(methyl-d3)benzoate dihydrochloride] here?
**A.** −16.08%

**Q.** Which ΔIOP % does the source give for `[2H]c1nccc2cc(NC(=O)[C@]([2H])(CN)c3ccc(C([2H])([2H])OC(=O)c4ccc(C)cc4C)cc3)ccc12` [Example 13, (S)-(4-(3-amino-1-((isoquinolin-6-yl-1-d)amino)-1-oxopropan-2-yl-2-d)phenyl) methyl-d2 2,4-dimethylbenzoate dihydrochloride] here?
**A.** −8.48%

**Q.** With `[2H]c1nccc2cc(NC(=O)[C@@H](c3ccc(C([2H])([2H])OC(=O)c4ccc(C)cc4C)cc3)C([2H])([2H])N)ccc12` [Example 12, (S)-(4-(3-amino-1-((isoquinolin-6-yl-1-d)amino)-1-oxopropan-2-yl-3,3-d2)phenyl)methyl-d2 2,4-dimethylbenzoate dihydrochloride] as the compound, how does the ΔIOP % read?
**A.** −5.23%

**Q.** Which ΔIOP % does the source give for `[2H]c1nccc2cc(NC(=O)[C@@H](c3ccc(C([2H])([2H])OC(=O)c4ccc(C([2H])([2H])[2H])cc4C([2H])([2H])[2H])cc3)C([2H])([2H])N)ccc12` [Example 22, (S)-(4-(3-amino-1-((isoquinolin-6-yl-1-d)amino)-1-oxopropan-2-yl-3,3-d2)phenyl) methyl-d2 2,4-bis (methyl-d3)benzoate dihydrochloride] here?
**A.** 0.08%

**Q.** With `[2H]C([2H])(OC(=O)c1ccc(C)cc1C)c1ccc([C@]([2H])(C(=O)Nc2ccc3cnccc3c2)C([2H])([2H])N)cc1` [Example 10, (S)-(4-(3-amino-1-(isoquinolin-6-ylamino)-1-oxopropan-2-yl-2,3,3-d3)phenyl)methyl-d2 2,4-dimethylbenzoate dihydrochloride] as the compound, how does the ΔIOP % read?
**A.** −0.78%

**Q.** With `[2H]C([2H])([2H])c1ccc(C(=O)OC([2H])([2H])c2ccc([C@]([2H])(C(=O)Nc3ccc4cnccc4c3)C([2H])([2H])N)cc2)c(C([2H])([2H])[2H])c1` [Example 5, (S)-(4-(3-amino-1-(isoquinolin-6-ylamino)-1-oxopropan-2-yl-2,3,3-d3)phenyl)methyl-d2 2,4-bis(methyl-d3)benzoate dihydrochloride] as the compound, how does the ΔIOP % read?
**A.** 1.19%

**Q.** Which ΔIOP % does the source give for `[2H]C([2H])(N)[C@@H](C(=O)Nc1ccc2cnccc2c1)c1ccc(COC(=O)c2ccc(C)cc2C)cc1` [Example 11, (S)-4-(3-amino-1-(isoquinolin-6-ylamino)-1-oxopropan-2-yl-3,3-d2) benzyl 2,4-dimethylbenzoate dihydrochloride] here?
**A.** −9.57%

**Q.** Which ΔIOP % does the source give for `[2H]C([2H])([2H])c1ccc(C(=O)OCc2ccc([C@H](C(=O)Nc3ccc4cnccc4c3)C([2H])([2H])N)cc2)c(C([2H])([2H])[2H])c1` [Example 16, (S)-4-(3-amino-1-(isoquinolin-6-ylamino)-1-oxopropan-2-yl-3,3-d2)benzyl 2,4-bis(methyl-d3)benzoate dihydrochloride] here?
**A.** −1.44%

**Q.** With `[2H]c1nccc2cc(NC(=O)[C@@]([2H])(c3ccc(C([2H])([2H])OC(=O)c4ccc(C)cc4C)cc3)C([2H])([2H])N)ccc12` [Example 7, (S)-(4-(3-amino-1-((isoquinolin-6-yl-1-d)amino)-1-oxopropan-2-yl-2,3,3-d3)phenyl)methyl-d2 2,4-dimethylbenzoate dihydrochloride] as the compound, how does the ΔIOP % read?
**A.** 0.48%

**Q.** For `[2H]C([2H])([2H])c1ccc(C(=O)OCc2ccc([C@@H](CN)C(=O)Nc3ccc4cnccc4c3)cc2)c(C([2H])([2H])[2H])c1` [Example 14, (S)-4-(3-amino-1-(isoquinolin-6-ylamino)-1-oxopropan-2-yl)benzyl 2,4-bis(methyl-d3)benzoate dihydrochloride], which ΔIOP % is on record?
**A.** −5.81%

**Q.** For `[2H]c1nccc2cc(NC(=O)[C@H](CN)c3ccc(COC(=O)c4ccc(C)cc4C)cc3)ccc12` [Example 1, (S)-4-(3-amino-1-((isoquinolin-6-yl-1-d)amino)-1-oxopropan-2-yl)benzyl 2,4-dimethylbenzoate], which ΔIOP % is on record?
**A.** −1.5%

**Q.** With `[2H]C([2H])([2H])c1ccc(C(=O)OC([2H])([2H])c2ccc([C@@H](CN)C(=O)Nc3ccc4cnccc4c3)cc2)c(C([2H])([2H])[2H])c1` [Example 15, (S)-(4-(3-amino-1-(isoquinolin-6-ylamino)-1-oxopropan-2-yl)phenyl)methyl-d2 2,4-bis(methyl-d3)benzoate dihydrochloride] as the compound, how does the ΔIOP % read?
**A.** −4.25%

**Q.** Which ΔIOP % does the source give for `[2H]c1nccc2cc(NC(=O)[C@@H](c3ccc(COC(=O)c4ccc(C)cc4C)cc3)C([2H])([2H])N)ccc12` [Example 4, (S)-4-(3-amino-1-((isoquinolin-6-yl-1-d)amino)-1-oxopropan-2-yl-3,3-d2)benzyl 2,4-dimethylbenzoate dihydrochloride] here?
**A.** −15.63%

**Q.** Which ΔIOP % does the source give for `[2H]c1nccc2cc(NC(=O)[C@@H](c3ccc(COC(=O)c4ccc(C([2H])([2H])[2H])cc4C([2H])([2H])[2H])cc3)C([2H])([2H])N)ccc12` [Example 21, (S)-4-(3-amino-1-((isoquinolin-6-yl-1-d)amino)-1-oxopropan-2-yl-3,3-d2) benzyl 2,4-bis(methyl-d3)benzoate dihydrochloride] here?
**A.** −5.06%

**Q.** Which ΔIOP % does the source give for `Cc1ccc(C(=O)OCc2ccc([C@@H](CN)C(=O)Nc3ccc4cnccc4c3)cc2)c(C)c1.Cl.Cl` [Reference compound 1, (S)-4-(3-amino-1-(isoquinolin-6-ylamino)-1-oxopropan-2-yl)benzyl 2,4-dimethylbenzoate dihydrochloride, reference compound] here?
**A.** −4.35%

**Q.** Which ΔIOP % does the source give for `[2H]C([2H])(OC(=O)c1ccc(C)cc1C)c1ccc([C@H](C(=O)Nc2ccc3cnccc3c2)C([2H])([2H])N)cc1` [Example 8, (S)-(4-(3-amino-1-(isoquinolin-6-ylamino)-1-oxopropan-2-yl-3,3-d2)phenyl)methyl-d2 2,4-dimethylbenzoate dihydrochloride] here?
**A.** −7.52%

**Q.** Which ΔIOP % does the source give for `[2H]c1nccc2cc(NC(=O)[C@H](CN)c3ccc(C([2H])([2H])OC(=O)c4ccc(C)cc4C)cc3)ccc12` [Example 18, (S)-(4-(3-amino-1-((isoquinolin-6-yl-1-d)amino)-1-oxopropan-2-yl)phenyl) methyl-d2 2,4-dimethylbenzoate] here?
**A.** −1.1%

**Q.** With `[2H]C([2H])(OC(=O)c1ccc(C)cc1C)c1ccc([C@@]([2H])(CN)C(=O)Nc2ccc3cnccc3c2)cc1` [Example 9, (S)-(4-(3-amino-1-(isoquinolin-6-ylamino)-1-oxopropan-2-yl-2-d)phenyl)methyl-d2 2,4-dimethylbenzoate dihydrochloride] as the compound, how does the ΔIOP % read?
**A.** −3.06%

**Q.** For `[2H]c1nccc2cc(NC(=O)[C@H](CN)c3ccc(C([2H])([2H])OC(=O)c4ccc(C([2H])([2H])[2H])cc4C([2H])([2H])[2H])cc3)ccc12` [Example 20, (S)-(4-(3-amino-1-((isoquinolin-6-yl-1-d)amino)-1-oxopropan-2-yl)phenyl) methyl-d2 2,4-bis (methyl-d3)benzoate dihydrochloride], which ΔIOP % is on record?
**A.** −4.89%

**Q.** With `[2H]c1nccc2cc(NC(=O)[C@]([2H])(CN)c3ccc(C([2H])([2H])OC(=O)c4ccc(C([2H])([2H])[2H])cc4C([2H])([2H])[2H])cc3)ccc12` [Example 23, (S)-(4-(3-amino-1-((isoquinolin-6-yl-1-d)amino)-1-oxopropan-2-yl-2-d)phenyl) methyl-d2 2,4-bis (methyl-d3)benzoate dihydrochloride] as the compound, how does the ΔIOP % read?
**A.** −0.87%

**Q.** For `[2H]c1nccc2cc(NC(=O)[C@H](CN)c3ccc(COC(=O)c4ccc(C([2H])([2H])[2H])cc4C([2H])([2H])[2H])cc3)ccc12` [Example 19, (S)-4-(3-amino-1-((isoquinolin-6-yl-1-d)amino)-1-oxopropan-2-yl)benzyl 2,4-bis(methyl-d3)benzoate dihydrochloride], which ΔIOP % is on record?
**A.** −3.3%
